For 16 compounds, IC50 and Ratio IC50 results are on record in ChEMBL document CHEMBL1146264, “Estrogen receptor beta ligands: design and synthesis of new 2-phenyl-isoindole-1,3-diones” (Bioorg Med Chem Lett, 2007).

In general, IC50 refers to the point on the concentration scale where inhibition reaches its midpoint.

One test addresses T1, Estrogen receptor (Homo sapiens, UniProt P03372).
T1 sequence (P03372 whole entry): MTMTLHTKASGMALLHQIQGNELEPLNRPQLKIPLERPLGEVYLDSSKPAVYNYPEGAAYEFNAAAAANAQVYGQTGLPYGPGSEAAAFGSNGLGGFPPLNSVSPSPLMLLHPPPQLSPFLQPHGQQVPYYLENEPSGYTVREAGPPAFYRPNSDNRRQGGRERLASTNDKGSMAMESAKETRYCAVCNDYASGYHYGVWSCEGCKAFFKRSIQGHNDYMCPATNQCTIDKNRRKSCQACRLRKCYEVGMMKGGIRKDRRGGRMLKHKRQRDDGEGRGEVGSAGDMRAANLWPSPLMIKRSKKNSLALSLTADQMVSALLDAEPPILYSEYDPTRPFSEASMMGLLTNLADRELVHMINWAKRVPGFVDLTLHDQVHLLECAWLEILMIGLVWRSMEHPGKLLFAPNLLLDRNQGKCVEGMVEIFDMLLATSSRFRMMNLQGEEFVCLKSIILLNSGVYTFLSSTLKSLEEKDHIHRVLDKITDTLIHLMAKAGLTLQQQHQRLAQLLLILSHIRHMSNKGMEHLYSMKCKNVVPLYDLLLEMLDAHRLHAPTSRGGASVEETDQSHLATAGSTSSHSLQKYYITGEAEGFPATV

For another test, the target named is Estrogen receptor beta (Homo sapiens, UniProt Q92731).
For another test, the species on record is Homo sapiens. Nature of the test: Selectivity for human LBD of ERbeta over human LBD of ERalpha.

Sequence of Estrogen receptor beta (Q92731 whole entry, the tested form may be a part): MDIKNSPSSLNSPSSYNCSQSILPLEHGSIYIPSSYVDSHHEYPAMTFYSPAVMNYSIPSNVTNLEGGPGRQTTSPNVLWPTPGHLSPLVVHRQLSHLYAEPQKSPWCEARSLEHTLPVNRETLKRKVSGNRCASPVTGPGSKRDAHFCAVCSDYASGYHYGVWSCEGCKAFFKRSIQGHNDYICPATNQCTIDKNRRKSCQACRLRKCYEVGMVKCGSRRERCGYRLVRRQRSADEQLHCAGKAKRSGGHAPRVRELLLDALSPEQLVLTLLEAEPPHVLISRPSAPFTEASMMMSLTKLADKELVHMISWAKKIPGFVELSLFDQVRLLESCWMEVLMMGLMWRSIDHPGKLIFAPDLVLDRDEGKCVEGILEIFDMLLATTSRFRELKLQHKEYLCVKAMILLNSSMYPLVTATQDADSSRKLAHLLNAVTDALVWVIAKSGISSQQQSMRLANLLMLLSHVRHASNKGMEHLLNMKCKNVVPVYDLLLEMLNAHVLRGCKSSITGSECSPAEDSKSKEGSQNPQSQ
Description for Estrogen receptor beta: Inhibition of human LBD of ERbeta

As to `O=C1c2ccc(O)cc2C(=O)N1c1cc(O)cc(O)c1`, the IC50 against Estrogen receptor and against Estrogen receptor beta was more than 5000 nM each time.

As for `COc1ccc(N2C(=O)c3ccc(O)cc3C2=O)c(OC)c1`, the IC50 against Estrogen receptor was 2470 nM; on Estrogen receptor beta, more than 5000 nM.

`Cc1cc(O)ccc1N1C(=O)c2ccc(O)cc2C1=O`: the Ratio IC50 in the test filed under Homo sapiens came out at 4. Also, the IC50 was 802 nM against Estrogen receptor and 2810 nM against Estrogen receptor beta.

On to `COc1ccc(N2C(=O)c3ccc(O)cc3C2=O)cc1`, for which the IC50 against Estrogen receptor was 3300 nM; at Estrogen receptor beta it was more than 5000 nM.

With `O=C1c2ccc(O)cc2C(=O)N1c1cccc(O)c1`, the IC50 on Estrogen receptor was 2900 nM; against Estrogen receptor beta, more than 5000 nM.

Regarding `COc1ccc(N2C(=O)c3ccc(O)cc3C2=O)c([N+](=O)[O-])c1`, the IC50 on Estrogen receptor and on Estrogen receptor beta was more than 5000 nM in each case.

`COc1cc(Br)c2c(c1)C(=O)N(c1ccc(O)cc1)C2=O`: the IC50 against Estrogen receptor and on Estrogen receptor beta was more than 5000 nM throughout.

For `O=C1c2ccc(O)cc2C(=O)N1c1cccc2c(O)cccc12`, in the test listed under Homo sapiens, the Ratio IC50 turned out to be 4. Further, the figures for the IC50 against Estrogen receptor and against Estrogen receptor beta were 802 nM and 2810 nM, respectively.

Consider `O=C1c2ccc(O)cc2C(=O)N1[C@H]1CC[C@H](O)CC1`, for which the IC50 on Estrogen receptor and against Estrogen receptor beta was more than 5000 nM in each case.

On to `O=C1c2ccc(O)cc2C(=O)N1c1ccc(O)cc1F`, for which, in the test listed under Homo sapiens, the Ratio IC50 amounted to 6. Further, the IC50 against Estrogen receptor is 53 nM; against Estrogen receptor beta it was 339 nM.

Regarding `O=C1c2ccc(O)cc2C(=O)N1c1ccc(O)cc1`, the Ratio IC50 in the test listed under Homo sapiens is 24. Besides, the results for the IC50 on Estrogen receptor and on Estrogen receptor beta were 84 nM and 1980 nM, respectively.

As for `O=C1c2ccc(O)cc2C(=O)N1c1ccc(O)c2ccccc12`, the Ratio IC50 in the test filed under Homo sapiens stood at 0.2. The figures for the IC50 against Estrogen receptor and on Estrogen receptor beta were 2640 nM and 560 nM, respectively.

Consider `O=C1c2ccc(O)cc2C(=O)N1c1ccc(O)cc1[N+](=O)[O-]`, for which the Ratio IC50 in the test listed under Homo sapiens is 4. Further, the IC50 against Estrogen receptor was determined as 21 nM; against Estrogen receptor beta it was 92 nM.

For the compound `O=C1c2ccccc2C(=O)N1c1ccc(O)cc1`, the IC50 against Estrogen receptor and against Estrogen receptor beta was more than 10000 nM throughout.

Take `O=C1c2ccc(O)cc2C(=O)N1c1ccccc1`: the figures for the IC50 against Estrogen receptor and at Estrogen receptor beta were 2700 nM and more than 5000 nM, respectively.

`O=C1c2cc(O)cc(Br)c2C(=O)N1c1ccc(O)cc1`: the Ratio IC50 in the test listed under Homo sapiens came to 45. For the same compound, the IC50 on Estrogen receptor was 36 nM; at Estrogen receptor beta it was 1620 nM.
